ChEMBL document CHEMBL1201862, “PubChem BioAssay data set” (2004)
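In this assay, cells in 96-well plates receive the compound at five concentrations for 48 hours. Endpoints are linearly interpolated between the surrounding concentrations. At the GI50, growth is halved.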 Activity calls are given as the source filed them. Cut-off read from the data, not from the text of the source: active = GI50 up to about 1.1 µM and inactive = higher.

Assays:
Assay in all cases: growth of human tumour cells (NCI), 48 h
[1] = test system: SR
[2] = test system: HCC 2998
[3] = test system: OVCAR-8
[4] = test system: SW-620
[5] = test system: Hs-578T
[6] = test system: 786-0
[7] = test system: UACC-62
[8] = test system: SNB-75
[9] = test system: SK-MEL-2
[10] = test system: UACC-257
[11] = test system: RXF 393
[12] = test system: A549
[13] = test system: MOLT-4
[14] = test system: OVCAR-3
[15] = test system: CCRF-CEM
[16] = test system: MDA-N
[17] = test system: NCI/ADR-RES
[18] = test system: NCI-H460
[19] = test system: RPMI-8226
[20] = test system: MDA-MB-231
[21] = test system: BT-549
[22] = test system: M14
[23] = test system: HL-60
[24] = test system: SF-539
[25] = test system: NCI-H226
[26] = test system: MCF7
[27] = test system: K562
[28] = test system: SNB-19
[29] = test system: HCT-116
[30] = test system: SK-MEL-5
[31] = test system: SK-OV-3
[32] = test system: SN12C
[33] = test system: MDA-MB-435
[34] = test system: NCI-H522
[35] = test system: NCI-H23
[36] = test system: EKVX
[37] = test system: DU-145
[38] = test system: CAKI-1
[39] = test system: UO-31
[40] = test system: SF-268
[41] = test system: A498
[42] = test system: HT-29
[43] = test system: LOX IMVI
[44] = test system: HCT-15
[45] = test system: KM12
[46] = test system: COLO 205
[47] = test system: T47D
[48] = test system: TK-10
[49] = test system: PC-3
[50] = test system: OVCAR-4
[51] = test system: OVCAR-5
[52] = test system: Malme-3M
[53] = test system: SK-MEL-28
[54] = test system: U-251

Measured: GI50

CCOC(=O)NNC(=O)NCc1cccc(CNC(=O)NNC(=O)OCC)c1
inactive: [1] > 100 µM | [2] > 100 µM | [3] > 100 µM | [4] > 100 µM | [5] > 100 µM | [6] > 100 µM | [7] > 100 µM | [8] > 100 µM | [9] > 100 µM | [10] > 100 µM | [11] > 100 µM | [12] > 100 µM | [13] > 100 µM | [14] > 100 µM | [15] > 100 µM | [16] > 100 µM | [17] > 100 µM | [18] > 100 µM | [19] > 100 µM | [20] > 100 µM | [21] > 100 µM | [22] > 100 µM | [23] > 100 µM | [24] > 100 µM | [25] > 100 µM | [26] > 100 µM | [27] > 100 µM | [28] > 100 µM | [29] > 100 µM | [30] > 100 µM | [31] > 100 µM | [32] > 100 µM | [33] > 100 µM | [34] > 100 µM | [35] > 100 µM | [36] > 100 µM | [37] > 100 µM | [38] > 100 µM | [39] > 100 µM | [40] > 100 µM | [41] > 100 µM | [42] > 100 µM | [43] > 100 µM | [45] > 100 µM | [46] > 100 µM | [47] > 100 µM | [48] > 100 µM | [49] > 100 µM | [50] > 100 µM | [51] > 100 µM | [52] > 100 µM | [53] > 100 µM | [54] > 100 µM
> 100 µM: [44]
